Series [1] has as its system fed male Sprague-Dawley rats. In words: Conditioned-fear stress (CFS)-induced defication model. The series is classed as in vivo. The conditions noted are these: wet weight of feces for 30 minutes. The procedure:
Fed male Sprague-Dawley rats were used. The rats were put into an electric shock device having a grid set in the floor (17×17×39 cm, trade name: CB 2000 type, O'Hara), and conditioning was carried out after 3 seconds of a warning sound, by applying an electric current of 2.5 mA for 5 seconds per once per minute, a total of 15 times, and carrying out light irradiation by three 40 W electric bulbs at the time of the electric shock. The normal group was put into the measuring device by the same protocol, but the electric shock was not applied. After about 24 hours, the rats were again put into the electric shock device just after intraperitoneal administration of tested compound, and CFS loading was carried out by applying 3 seconds of warning sound and 5 seconds light irradiation for 30 minutes. Wet weights of excreted feces were measured for 30 minutes starting from the commencement of CFS loading. In this connection, the feces just after putting of the rats into the measuring device were excluded from measured values.

For another series, the system named is fed male ddY mice. Description: Restraint stress-induced defication model. In kind it is in vivo. The conditions noted are these: for 50% inhibition dose for restraint stress-induced defication: number of feces excreted during 1 hour of restraint. The source says: RC-3095 was used by dissolving in physiological saline, and compound 1, compound 3 and compound 5 in physiological saline containing 5% ethanol+5% Cremophor, and compound 2 and compound 4 in water for injection containing 20% propylene glycol+20% Tween 80. Just after intraperitoneal administration of a compound to be tested to each of fed male ddY mice, the animal was put into a restraint stress cage (KN-469, Natsume Seisakusho). The number of feces excreted during a period of from the restriction commencement to 1 hour thereafter was measured. Normal group was put into a separate cage, and number of feces excreted during 1 hour was measured in the same manner.

A further series addresses T1, BB2 receptor (Homo sapiens, UniProt P30550).
T1 construct: endogenous in cells; host or cells: PC-3 human prostate cancer cells (membrane preparation)
Description: BB2 receptor binding test (125I [Tyr4] bombesin, PC-3 cell membrane sample). The settings on record: membrane sample of human prostate cancer-derived PC-3 cell; 125I [Tyr4] bombesin 0.075 nM; room temperature, 2 hours; read-out: 50% binding inhibition concentration. How it is done: A BB2 receptor binding test was carried out using a membrane sample prepared from a human prostate cancer-derived PC-3 cell. The PC-3 cell was cultured using RPMI-1640 medium containing 5% fetal bovine serum, and then a membrane sample was prepared by the following methods. The cells loosened by a trypsin treatment were mixed with 50 mM Tris-HCl buffer (pH 7.4, containing 0.2 mg/ml trypsin inhibitor and 0.2 mg/ml benzamidine) and homogenized by Polytron. The cell suspension was centrifuged at 1,500 rpm for 10 minutes, and the thus obtained supernatant was subjected to 1 hour of ultracentrifugation at 37,000 rpm. The precipitate was suspended in the aforementioned buffer to a concentration of 0.4 mg protein/ml and stored at −80° C.
The BB2 receptor binding test was carried out by the following method, and the receptor antagonistic activity of a compound to be tested was calculated. A 50 μl portion of the membrane sample, 50 μl of an assay buffer (20 mM HEPES-HBSS containing 0.1% bovine serum albumin and 0.1 mg/ml bacitracin, pH 7.4) ^125I [Tyr^4] bombesin (0.075 nM) and 2 μl of each compound to be tested dissolved in dimethyl sulfoxide were added to a 96 well assay plate and incubated at room temperature for 2 hours. Non-specific binding was measured using 1 μM of bombesin. After completion of the incubation, the reaction liquid was filtered through a Whatman GF/B filter which had been soaked in 0.5% polyethyleneimine. The radioactivity on the filter was measured using a microplate scintillation counter (Top Count, Perkin-Elmer).

Another series has as its system fed male Wistar rats. In words: Abdominal pain model by large intestinal distension using abdominal muscle contraction reaction as the index. In kind it is in vivo. How it is done:
Fed male Wistar rats were used. Under pentobarbital anesthesia, an electrode for electromyogram use (trade name: M-1.5I, Star Medical) was sewed on the outer abdominal oblique muscle. The electrode cord was fished out from the body of around the back of the head through the skin and protected with a protective jacket prepared by processing Velcro. The test was carried out when 5 days or more passed after the surgical operation.
On the day of the test, a latex balloon of 5 to 6 cm in length was inserted from the rat anus under a light ether anesthesia and adjusted such that the balloon end is positioned at 2 cm from the anus. The catheter continuing from the balloon was fixed to the tail base with a tape and connected to a pressure transducer and a plastic bottle filled with water via a three-way cock. The plastic bottle was connected to a motor-aided device such that its height can be increased at a constant rate, and the colon-rectum was distended by increasing height of the plastic bottle. The balloon internal pressure signal was amplified using an amplifier for strain pressure use. After recovering from the ether anesthesia in a cage (23.5×19×19 cm), the colon-rectum distension was carried out. […] As a result, the abdominal muscle contracts and the electromyogram activities increase suddenly and sharply. The pressure at this point of time was regarded as the abdominal pain reflection threshold value. The electromyogram activities were amplified using an amplifier for bioelectric use (trade name: AB-621G, Nihon Kohden Corp.), and recorded by a data recording interface (trade name: 1401 plus, Cambridge Electronic Design, Cambridge, England). The colon-rectum distension was repeatedly carried out at intervals of 4 minutes until completion of the test. The compound was administered 2 minutes after completion of the measurement of the pre-administration value, and the colon-rectum distension was repeated until 60 minutes after the administration. […]

A further series deals with patients. The settings on record: IBS patients; cited from earlier work.

Molecules are shown by their SMILES.

T1 sequence (P30550 whole entry): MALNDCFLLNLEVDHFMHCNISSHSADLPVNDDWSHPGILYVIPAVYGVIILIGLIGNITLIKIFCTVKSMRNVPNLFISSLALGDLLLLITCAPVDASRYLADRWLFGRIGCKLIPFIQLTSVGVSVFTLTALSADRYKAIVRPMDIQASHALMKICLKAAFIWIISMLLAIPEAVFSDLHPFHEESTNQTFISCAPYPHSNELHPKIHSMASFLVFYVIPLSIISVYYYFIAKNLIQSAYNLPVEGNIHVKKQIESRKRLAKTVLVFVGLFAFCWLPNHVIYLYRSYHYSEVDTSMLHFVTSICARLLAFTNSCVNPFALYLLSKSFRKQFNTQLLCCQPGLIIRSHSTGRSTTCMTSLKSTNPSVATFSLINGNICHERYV

Take `CC(C)CC(CN[C@@H](CC(C)C)C(N)=O)NC(=O)[C@H](Cc1cnc[nH]1)NC(=O)CNC(=O)[C@@H](NC(=O)C(C)NC(=O)[C@H](Cc1c[nH]c2ccccc12)NC(=O)[C@H](CCC(N)=O)NC(=O)[C@H]1Cc2c([nH]c3ccccc23)CN1)C(C)C` (some centres unmarked) [RC-3095]: the “effect on CFS-induced defication at 10 mg/kg (in words)” value in series [1] (10 mg/kg intraperitoneal) is on record as “significant inhibitory action”. Moreover, the “effect on CFS-induced defication (in words)” value in series [1] (intraperitoneal, FIG. 8) is recorded as “dose-dependent inhibitory effect on the defication”. Also, the “effect on restraint stress-induced defication (in words)” value with fed male ddY mice (intraperitoneal, FIG. 2) is listed as “dose-dependent inhibitory effect on the defication”. Further, the “50% inhibition dose for restraint stress-induced defication” value (shortened to “50% inhibition dose”) in the series on fed male ddY mice (intraperitoneal) worked out at 5.2 mg/kg. Further, the IC50 on BB2 receptor was determined as 0.02 µM. The “action on abdominal pain threshold value at 3 mg/kg (in words)” value in the series on fed male Wistar rats (3 mg/kg, AUC of threshold values until 60 minutes) is on record as “significant increasing action”. Besides, the “action on abdominal pain threshold value at 10 mg/kg (in words)” value with fed male Wistar rats (10 mg/kg, AUC of threshold values until 60 minutes) is on record as “significant increasing action”. Further, the “action on abdominal pain threshold value (in words)” value in the series with fed male Wistar rats (AUC of threshold values until 60 minutes after administration, FIG. 9) is “dose-dependently increase abdominal pain threshold value”.
In the case of `Cc1[nH]cnc1CN1CCc2c(c3ccccc3n2C)C1=O` [alosetron], in the series with patients, the “improving rate for abdominal symptoms and diarrhea” value was 40 to 60%; the serious side effect result is “ischemic colitis (including mortal cases)”.
Take `c1ccc(-c2sc(-c3ccccn3)nc2-c2cccc3ccccc23)cc1` [compound 1, 2-[4-(1-naphthyl)-5-phenyl-1,3-thiazol-2-yl]pyridine]: the “inhibitory effect on the defication” value in the series on fed male ddY mice (10 mg/kg intraperitoneal, number of feces during 1 hour of restraint) is reported as “about 83%”. At BB2 receptor, the IC50 was 0.504 µM.
On to `O=C(/C=C/c1ccc(-c2ccc([N+](=O)[O-])cc2)o1)c1ccccc1` [compound 2, (2E)-3-[5-(4-nitrophenyl)-2-furyl]-1-phenyl-2-propen-1-one], for which the “50% inhibition dose” value in the series with fed male ddY mice (intraperitoneal) was 34.3 mg/kg. Also, the IC50 at BB2 receptor is 1.33 µM.
The matching figures for `O=C(Nc1ccc(S(=O)(=O)N2CCCCC2c2cccnc2)cc1)c1cc([N+](=O)[O-])ccc1Cl` (centres unmarked) [compound 3, 2-chloro-5-nitro-N-(4-{[2-(pyridin-3-yl)piperidin-1-yl]sulfonyl}phenyl)benzamide]: 19.0 mg/kg and 0.342 µM.
With `COc1ccc(N(CC(=O)Nc2ccc(Cl)cc2C)S(=O)(=O)c2ccccc2)cc1OC` [compound 4], in the series with fed male ddY mice (intraperitoneal), the “50% inhibition dose” value came to 13.5 mg/kg. For the same compound, the IC50 on BB2 receptor came out at 0.398 µM.
The matching figures for `COc1cc(OC)cc(C(=O)Nc2sc3c(c2-c2nc4ccccc4s2)CCN(C(C)C)C3)c1.Cl` [compound 5, N-[3-(1,3-benzothiazol-2-yl)-6-isopropyl-4,5,6,7-tetrahydrothieno[2,3-c]pyridin-2-yl]-3,5-dimethoxybenzamide hydrochloride]: 15.6 mg/kg and 0.383 µM.
